pEC50: −log10 of the molar value. Entries after “also recorded” stand apart in the source; their conditions may differ.
Columns and labels:
[1] = xCELLigence real-time cytotoxicity assay (RTCA), CC50; assay type: cell-based; settings: African green monkey, Vero E6 cells, 24 h of exposure
Description: As compounds C1, C2, and C3 were relatively toxic (Figure 2A), we determined the selectivity index (SI) of the identified potential broad-spectrum flavivirus inhibitors. As the WST-1 assay tends to underestimate the toxic effect and is unable to detect cytostatic effects, the CC50 of the perspective compounds was measured using a more sensitive xCELLigence real-time cytotoxicity assay (RTCA). […] The full xCELLigence RTCA data are provided in the Supporting Information section (Figures S2 and S3). Thereafter, for each compound, the SI was calculated as a ratio of the CC50 of a compound against its EC50 [36].
Vero E6 cells were seeded on a 16-well E-plate (ACEA Biosciences, Inc., San Diego, CA, USA ) at a density of 5 × 10^3 cells/well and allowed to adhere overnight. On the next day, the studied compounds were added at the final concentrations ranging from 0.078 μM to 5 μM with a two-fold dilution step for compounds C1, C2, and C3, and at the final concentrations ranging from 1.56 μM to 50 μM with a two-fold dilution step for compounds C5 and C6; 0.01% DMSO was used as a solvent control. The cells were incubated for 5 days, and the signals between the electrodes (impedance) were recorded using an RTCA xCELLigence machine (Agilent Technologies, Inc., Santa Clara, CA, USA). […] The CC50 values were calculated using GraphPad Prism 10.0 for Windows, GraphPad Software, v. 10.4.1, Boston, MA, USA, www.graphpad.com (accessed on 16 February 2025).

KUNV-Nanoluc = experiment: organism not typed; assay type: cell-based; settings: for EC50: Vero C1008, read-out: KUNV EC50, μM
TBEV-Nanoluc = experiment: microbe, parasite or virus in culture; assay type: cell-based; settings: for EC50: Tick-borne encephalitis virus, Vero C1008, read-out: TBEV EC50, μM
Vero E6 cells [2] = experiment: WST-1 cell viability assay, Vero E6; assay type: cell-based, African green monkey; settings: Vero E6, 48 h of exposure
Description: (§1) The cytotoxic effect of all studied compounds was assessed using the WST-1 assay after 48 h of exposure. […] This observation can be explained by the fact that the compound C8 is resazurin, phenoxazine dye, also known as Alamar Blue, which is subject to irreversible metabolic reduction to the resorufin by live mammalian cells. Thus, the cytotoxic effect of this compound cannot be assessed by the WST-1 assay correctly. Therefore, the C8 cytotoxicity was further assessed using the resazurin cell viability assay. This assay allowed us to avoid the interference between the tested compound and dye and obtain more reliable results for colored compounds.
(§2) Vero E6 or U2OS cells were seeded on the 96-well plate at a density of 1 × 10^4 cells/well and were allowed to adhere overnight. Next day, the cells were treated with the studied compounds at concentrations ranging from 1 to 100 μM with a ten-fold dilution step. As a solvent control, 0.01% DMSO (Sigma, St. Louis, MO, USA) was used. After 48 h of exposure, 10 μL of WST-1 (10 mg/mL) cell proliferation reagent (Roche, Cat. No. 11644807001) was added to each well, and plates were incubated at 37 °C, 5% CO2 for 2 h. The optical density was then measured at 450 nm using an Epoch Microplate Spectrophotometer (BioTek Instruments, Inc., Winooski, VT, USA). Four independent experiments were carried out in triplicates.

U2OS cells [3] = experiment: WST-1 cell viability assay, U2OS; assay type: cell-based, human; settings: 48 h of exposure
Description: as §2

DENV2-Nanoluc replicon = assay type: cell-based
ZIKV-Nanoluc replicon = assay type: cell-based
KUNV-Nanoluc replicon = assay type: cell-based
TBEV-Nanoluc replicon = assay type: cell-based
DENV2-Nanoluc = experiment: microbe, parasite or virus in culture; assay type: cell-based; settings: for EC50: Dengue virus, DENV2, Vero C1008, read-out: DENV2 EC50, μM
ZIKV-Nanoluc = experiment: microbe, parasite or virus in culture; assay type: cell-based; settings: for EC50: Zika virus, Vero C1008, read-out: ZIKV EC50, μM
U2OS cells [4] = test system: U2OS cells; parameters: method as in PMID 31609477; settings: previously reported; read-out: 50% cytotoxic concentration (CC50) against U2OS cells; cited from earlier work
DENV-2-NGC = test system: DENV-2-NGC; parameters: method as in PMID 17360676; settings: Vero E6 cells; read-out: EC50, inhibition of DENV-2-NGC activity; cited from earlier work
WNV, DENV, and YFV = settings: cited from earlier work
ZIKV = test system: ZIKV; parameters: method as in PMID 32452420; settings: Vero E6 cells; read-out: EC50, inhibition of ZIKV replication; cited from earlier work
Vero E6 cells [5] = experiment: Resazurin cell viability assay, Vero E6; assay type: cell-based, African green monkey; settings: Vero E6, 48 h of exposure
Description: as §1
Vero E6 cells were seeded on a 96-well plate at a density of 1 × 10^4 cells/well and were allowed to adhere overnight. On the next day, the medium was replaced with a fresh complete growth medium containing the desired compound at final concentrations ranging from 1 μM to 100 μM with a ten-fold dilution step; 0.05% DMSO was used as a solvent control. […] Thereafter, the fluorescence was measured by a Synergy H1 Hybrid Multi-Mode Microplate Reader (BioTek Instruments, Inc., Winooski, VT, USA) using a 540 nm excitation and 590 nm emission filter. […]

SMILES | CC50 at 24 h [1] [µM] | antiviral effect against KUNV-Nanoluc (initial screening) (KUNV-Nanoluc) | antiviral effect against TBEV-Nanoluc (initial screening) (TBEV-Nanoluc) | EC50 (TBEV-Nanoluc) [µM] | cytotoxic effect (WST-1 assay) (Vero E6 cells [2]) | cytotoxic effect (WST-1 assay) (U2OS cells [3]) | antiviral effect against DENV2-Nanoluc replicon (DENV2-Nanoluc replicon) | antiviral effect against ZIKV-Nanoluc replicon (ZIKV-Nanoluc replicon) | antiviral effect against KUNV-Nanoluc replicon (KUNV-Nanoluc replicon) | antiviral effect against TBEV-Nanoluc replicon (TBEV-Nanoluc replicon) | antiviral effect against DENV2-Nanoluc (initial screening) (DENV2-Nanoluc) | EC50 (DENV2-Nanoluc) [µM] | antiviral effect against ZIKV-Nanoluc (initial screening) (ZIKV-Nanoluc) | EC50 (ZIKV-Nanoluc) [µM] | EC50 (KUNV-Nanoluc) [µM] | also measured
Nc1ncnc2c1ncn2C1OC(CO)C(O)C1O (centres unmarked) [Compound C7, 2-(6-amino-9H-purin-9-yl)-5-(hydroxymethyl)oxolane-3,4-diol] | > 50 | slight inhibition effect was observed for compound C7 at the 50 μM concentration | clear dose-dependent antiviral effect | 8.33 | no cytotoxic effect at the maximal tested concentration | more toxic for the U2OS cells at the maximum tested concentration than in the Vero E6 cells | slight inhibition effect against DENV2-Nanoluc if it was added at 1 h post-transfection; also recorded: inactive against all studied flavivirus replicons at the maximal non-toxic concentration | inactive against all studied flavivirus replicons at the maximal non-toxic concentration | inactive against all studied flavivirus replicons at the maximal non-toxic concentration | no inhibition of TBEV replication was observed; also recorded: inactive against all studied flavivirus replicons at the maximal non-toxic concentration |  |  |  |  |  | 
COc1c(C)c2c(c(O)c1CC=C(C)CCC(=O)O)C(=O)OC2 [Compound C3, 6-(4-hydroxy-6-methoxy-7-methyl-3-oxo-1,3-dihydro-2-benzofuran-5-yl)-4-methylhex-4-enoic acid] | > 5 | apparent dose-dependent antiviral effect | clear dose-dependent antiviral effect | 0.61 |  | extremely toxic for the U2OS cell line even at the lowest micromolar concentration | no effect at the maximum non-toxic concentration | no effect at the maximum non-toxic concentration | no effect at the maximum non-toxic concentration | no effect at the maximum non-toxic concentration | apparent dose-dependent antiviral effects | 0.12 | only demonstrated a statistically significant antiviral effect at the maximum tested concentration | 0.53 | 0.21 | CC50 (U2OS cells [4]): 1660 nM; pEC50 (DENV-2-NGC): 5.24
O[C@H]1[C@H]2c3cc4c(cc3CN3CCC(=C[C@@H]1O)[C@H]23)OCO4 [Compound C1, (1S,17S,18S,19S)-5,7-dioxa-12-azapentacyclo[10.6.1.0^2,^10.0^4,^8.0^15,^19]nonadeca-2(10),3,8,15-tetraene-17,18-diol] | 1.3 | apparent dose-dependent antiviral effect | the ten-fold increase in concentration did not lead to any significant improvement of the antiviral effect | 0.09 |  |  | later addition (at 8 h post-transfection) of C1 had a lower antiviral effect compared to earlier | later addition (at 8 h post-transfection) of C1 had a lower antiviral effect compared to earlier | later addition (at 8 h post-transfection) of C1 had a lower antiviral effect compared to earlier | later addition (at 8 h post-transfection) of C1 had a lower antiviral effect compared to earlier | apparent dose-dependent antiviral effects | 0.09 | completely inhibited the ZIKV-Nanoluc replication at the maximum tested concentration | 0.13 | 0.17 | concentration at which a statistically significant antiviral effect appeared (ZIKV-Nanoluc) (ZIKV-Nanoluc): 0.2 µM; concentration at which the antiviral effect appeared (TBEV-Nanoluc) (TBEV-Nanoluc): 0.2 µM; reduction of viral titers of WNV, DENV, and YFV (WNV, DENV, and YFV): 10^2- to 10^4 fold; pEC50 (ZIKV): 6.41
Nc1nc(N)c2c(Oc3ccc(F)cc3)cccc2n1 [Compound C4, 5-(4-fluorophenoxy)quinazoline-2,4-diamine] | > 0.2 |  | partially inhibit viral replication at the minimal tested concentration without an apparent dose-dependent effect |  |  |  |  |  |  |  | negligible inhibition effect at the maximum tested concentration |  | some tendency to decrease the ZIKV-Nanoluc activity at a concentration of 2 μM |  |  | 
O=c1ccc2[n+]([O-])c3ccc([O-])cc3oc-2c1.[Na+] [Compound C8, sodium 3-oxo-3H-phenoxazin-10-ium-7,10-bis(olate)] | > 50 |  | partially inhibit viral replication at the minimal tested concentration without an apparent dose-dependent effect |  | inverse dose-dependent effect |  |  |  |  |  | negligible inhibition effect at the maximum tested concentration; also recorded: no antiviral effect against DENV2-Nanoluc in the tested concentrations range |  |  |  |  | cytotoxic effect (resazurin cell viability assay) (Vero E6 cells [5]): no cytotoxic effect
O=[N+]([O-])c1c(Nc2ccccc2O)cc(Cl)c2nonc12 [Compound C5, 2-[(7-chloro-4-nitro-2,1,3-benzoxadiazol-5-yl)amino]phenol] | 12.8 | decreased the KUNV-Nanoluc activity only at the maximum tested concentrations | clear dose-dependent antiviral effect | 9.88 | moderate cytotoxic effect at 50 μM |  |  |  |  |  | apparent dose-dependent antiviral effects | 2.91 | at the 50 μM concentration, the virus activity was completely inhibited | 10.4 | 8.9 | 

— publication PMC11944514, “Dengue Virus Inhibitors as Potential Broad-Spectrum Flavivirus Inhibitors” (Pharmaceuticals, 2025)
